Reference: US20090325884A1, “Method for Detecting Autoantibodies Formed in Rheumatoid Arthritis” (PROCOLLAGEN OY, priority 2005, published 2009)
Marks after values point to notes of the source that are not given here. Where no end group is shown, it is not given here. [ ]: non-standard residue; d: D form. Cit = NC(=O)NCCC[C@H](N)C(=O)O

Key:
[1] = test system: human sera; assay: ELISA: binding of biotinylated collagen peptides to human sera; details: for Controls mean ± SD absorbance: 81 sera from healthy controls, read at 450 nm; for Controls over mean + 2 SD number: number of the 81 control sera; for RA patients over mean + 2 SD number: number of the 120 RA sera, significance marks versus controls; for number of RA sera that bound more citrullinated peptide than normal (arginine) peptide: 120 RA sera; for mean (variance/SD) of the differences, absorbance value of citrullinated peptide minus that of arginine peptide: control samples; for specific binding to the citrullinated form (autoantibodies against citrullinated proteins): RA sera
Source text: The serum samples from 120 patients with RA were obtained from the Division of Rheumatology of Oulu University Hospital. The controls consisted of 81 sera from healthy people matched for age and sex. Six pairs of biotinylated peptides were synthesised by NeoMPS (Strasbourg, France). […] FIGS. 1A-C show the localization of the peptides CC1-CC4 in type II collagen and their sequences; the numbers in brackets refer to arginine residues: CC1 (1059), CC2 (1048), CC3 (799) and CC4 (28). Collagenase cleavage site is shown by arrow in FIG. 1A -GPPGPQG|LAGQRGE- (SEQ ID NO:9). […] The sequence GPPGPGIDMSAFAGLGPREKGPDPLQYMXA is shown in the sequence listing as SEQ ID NO: 10. The 12 carboxy terminal amino acids represent the peptide CC1. […] One member of each pair contained the arginine predicted by the respective gene, whereas in the other member of the pair this was replaced by citrulline.
The biotinylated peptides were coupled to streptavidin-coated 96-well assay plates (BioBind Assembly, Thermo Labsystems Oy, Vantaa, Finland) at a concentration of 10 μg/well. The coupling was performed at room temperature, pH 7.5, for two hours. The streptavidin-coated wells had been blocked by the manufacturer to prevent unspecific binding.
The sera to be tested were diluted in assay buffer (10 mM Tris-HCl, 350mM NaCl, 1% BSA, 1% [vol/vol] Triton X-100, 0.5% [wt/vol] Na-deoxycholate, 0.1% SDS; pH 7.6) supplemented with 1% rabbit serum and incubated for an hour at room temperature. After washing (3 times with PBS/0.05% [vol/vol] Tween-20), 100 μl of anti-human IgG conjugated to peroxidase (Product #31412, Pierce, Rockford, Ill., USA) diluted 1:7500 in EIA buffer (20 mM Tris-HCl, 150 mM NaCl, 0.1% BSA, 0.05% Tween-20, pH 7.5) was added. After incubation for an hour at room temperature, the plates were washed (3 times with PBS/Tween-20). The bound antibodies were detected with 3,3′-5,5′-tetramethyl-benzidine (Sigma-Aldrich, St.Louis, Minn., USA) as a substrate (0.01 mg/100 μl per well in 100 mM sodium acetate trihydrate, 1.5 mM citric acid monohydrate, 0.0015% H2O2). After 30 minutes, the reaction was stopped by adding 100 μl 2M sulphuric acid/well. The plates were read at a wavelength of 450 nm in a Victor^2 instrument (Wallac, Turku, Finland) and calculated by Multicalc (Wallac). All the sera were tested in duplicate. The coefficients of variation were generally less than 10%.

[2] = test system: IgG antibodies against the synthetic C-telopeptides of the α1 chains of human type I and II collagens; assay: Two-site chemiluminescence immunoassay with biotinylated C-telopeptides; assay type: binding
Method: The measurements were done with two-site chemiluminescence immunoassays, which detect IgG antibodies against the synthetic C-telopeptides of the α1 chains of human type I and II collagens (EKAHDGGRYYRA (SEQ ID NO:4), and EKGPDPLQYMRA (SEQ ID NO:5), or EKAHDGGRYYXA (SEQ ID NO:1), and EKGPDPLQYMXA (SEQ ID NO:3), respectively, where X stands for citrulline, from NeoMPS, Strasbourg, France). The serum samples were first diluted 1:10 in a buffer containing 10 mM Tris-HCl, 350 mM NaCl, 1% BSA, 1% [vol/vol] Triton X-100, 0.5% [wt/vol] Na-deoxycholate, 0.1% SDS; pH 7.6 and incubated with suitable concentrations of one of the above peptides (in biotinylated form) and streptavidin-coated magnetic particles for 10 minutes at 37° C. The unbound biotinylated antigen and antibodies were separated from the complex bound to the magnetic particles by aspiration of the reaction mixture and subsequent washing. Thereafter, acridinium-labeled anti-human IgG antibodies were added to the reaction mixture followed by another 10-minute incubation to produce the sandwich complex. The unbound label was separated by aspiration of the reaction mixture and subsequent washing. To the washed magnetic particles with the complex we injected the triggers 1 and 2, initiating the chemiluminescence reaction. […]

[3] = test system: autoantibodies in sera binding citrulline containing type II collagen carboxytelopeptide; assay: Inhibition assay: citrullinated peptide ELISA with and without soluble peptide; parameters: species or system human; details: soluble peptide 200 μg/ml
Method: Preferentially it is also possible to use only citrullinated peptide assay version, where this assay is performed with standard condition and with adding the same or similar soluble peptide in assay solution (200 μg/ml).
Sera from RA patients (n=120) and controls (n=80) were diluted 1:100 in assay buffer and/or inhibiting buffer (with soluble citrulline containing peptide (200 μg/ml)). The inhibition time was 30 minutes. After the inhibition reaction, the sera were moved to the wells of streptavidin-coated 96-well assay plates to which the biotinylated citrulline containing peptides had been coupled. After washing (3 times with PBS/0.05% [vol/vol] Tween-20), 100 μl of anti-human IgG conjugated to peroxidase (Product #31412, Pierce, Rockford, Ill., USA) diluted 1:7500 in EIA buffer (20 mM Tris-HCl, 150 mM NaCl, 0.1% BSA, 0.05% Tween-20, pH 7.5) was added. After incubation for an hour at room temperature, the plates were washed (3 times with PBS/Tween-20). The bound antibodies were detected with 3,3′-5,5′-tetramethyl-benzidine (Sigma-Aldrich, St.Louis, Minn., USA) as a substrate (0.01 mg/100 μl per well in 100 mM sodium acetate trihydrate, 1.5 mM citric acid monohydrate, 0.0015% H2O2). After 30 minutes, the reaction was stopped by adding 100 μl 2M sulphuric acid/well. The plates were read at a wavelength of 450 nm in a Victor instrument (Wallac, Turku, Finland). […]

Row | Sequence | Controls mean ± SD absorbance [1] | Controls over mean + 2 SD number [1] | RA patients over mean + 2 SD number [1] | mean (variance/SD) of the differences, absorbance value of citrullinated peptide minus that of arginine peptide [1] | further results
1 | EKAHDGGRYYRA (also: biotinylated, site not given here; listed as Homo sapiens) [C-telopeptide of α1(I) Arginine peptide, synthetic C-telopeptide of the α1 chain of human type I collagen] | 0.288 ± 0.142 | 4/81 | 6/120^ns | – | –
2 | EKAHDGGRYYXA (EKAHDGGRYY[Cit]A; also: biotinylated, site not given here) | 0.314 ± 0.117 | 2/81 | 24/120*** | around +0.026 (0.074) | number of RA sera that bound more citrullinated peptide than normal (arginine) peptide [1]: 20; number of RA patients whose sera showed increased binding of the citrullinated peptide ([2]; out of 120 RA patients, p=0.003 compared to controls): 44
3 | EKGPDPLQYMRA (listed as Homo sapiens) [CC1 Arginine peptide, C-telopeptide of the α1 chain of type II collagen] | 0.181 ± 0.077 | 2/81 | 54/120*** | – | –
4 | EKGPDPLQYMXA (EKGPDPLQYM[Cit]A; also: biotinylated, site not given here) [CC1 Citrulline peptide] | 0.155 ± 0.065 | 2/81 | 35/120*** | – | inhibition-% with the respective soluble antigen in controls (mean±SD) ([3]; control sera diluted 1:100, 30 minutes): 5.4%±3.8; number of RA patients showing increased inhibition ([3]; out of 120, more inhibition than 13.0%): 38
5 | EKGPDPLQYMXA (EKGPDPLQYM[Cit]A; also: biotinylated, site not given here) [CC1] | – | – | – | −0.026 (SD 0.032) | number of RA sera that bound more citrullinated peptide than normal (arginine) peptide [1]: 12; specific binding to the citrullinated form (autoantibodies against citrullinated proteins) [1]: specifically bound autoantibodies against citrullinated proteins; number of patients' sera that bound the citrullinated peptide more strongly than the arginine peptide ([2]; 120 RA patients, p=0.074 compared to controls, not significant): 35
6 | GPMGPXGPPGPA (GPMGP[Cit]GPPGPA; also: biotinylated (site not given here)) [CC4 Citrulline peptide] | 0.184 ± 0.071 | 2/81 | 22/120*** | – | –
7 | GPMGPXGPPGPA (GPMGP[Cit]GPPGPA; also: biotinylated (site not given here)) [CC4] | – | – | – | +0.005 (0.020) | specific binding to the citrullinated form (autoantibodies against citrullinated proteins) [1]: no specific binding
8 | GPMGPXGPPGPA [CC4 Arginine peptide] (GPMGPRGPPGPA; also: biotinylated, site not given here) [type II collagen peptide, arginine residue 28] | 0.179 ± 0.070 | 3/81 | 60/120*** | – | –
9 | LAGQXGIVGLP (LAGQ[Cit]GIVGLP; also: biotinylated (site not given here)) [CC3 Citrulline peptide] | 0.181 ± 0.067 | 2/81 | 32/120*** | – | –
10 | LAGQXGIVGLP (LAGQ[Cit]GIVGLP; also: biotinylated (site not given here)) [CC3] | – | – | – | −0.001 (0.026) | specific binding to the citrullinated form (autoantibodies against citrullinated proteins) [1]: no specific binding
11 | LAGQXGIVGLP [CC3 Arginine peptide] | 0.182 ± 0.073 | – | 63/120*** | – | –
12 | SAFAGLGPXEKGPD (SAFAGLGP[Cit]EKGPD; also: biotinylated (site not given here)) [CC2 Citrulline peptide] | 0.135 ± 0.054 | 1/81 | 25/120*** | – | –
13 | SAFAGLGPXEKGPD (SAFAGLGP[Cit]EKGPD; also: biotinylated (site not given here)) [CC2] | – | – | – | −0.027 (0.029) | number of RA sera that bound more citrullinated peptide than normal (arginine) peptide [1]: two
14 | SAFAGLGPXEKGPD [CC2 Arginine peptide] | 0.162 ± 0.053 | 3/81 | 50/120*** | – | –
15 | YDFGYDGDFYXA (YDFGYDGDFY[Cit]A; also: biotinylated (site not given here)) [listing 1 of 2 here] | 0.763 ± 0.356 | 3/81 | 12/120** | – | –
16 | YDFGYDGDFYXA (YDFGYDGDFY[Cit]A; also: biotinylated (site not given here)) [listing 2 of 2 here] | – | – | – | +0.071 (0.252) | –
